Experimental data reported in patent US20200263231A1, “Fluorogenic dyes for high sensitivity DNA detection” (LIFE TECHNOLOGIES CORPORATION, priority 2016, published 2020).

Legend:
[1] = UV/VIS absorption spectra; assay type: physicochemical; conditions: 10 μM compound in 50 mM potassium phosphate buffer (pH 7.0)
Protocol: The UV/VIS absorption spectra were obtained with 10 μM compound solution in 50 mM potassium phosphate buffer (pH 7.0) in a final volume of 3 mL. Measurements were carried out using a Lambda 245 spectrophotometer from Perkin Elmer.

calf thymus DNA = test: Fluorescence emission and enhancement of compounds bound to calf thymus DNA; assay type: binding; conditions: 0.8 μM compound with 500 ng/ml calf thymus DNA in TE buffer; for Emission Max: excited at 488 nm; for Fluorescence Enhancement: emission area 500-715 nm compared to compound 1, defined as 1000-fold
Protocol: Compounds 1-65 were prepared and their fluorescence absorption and emission characteristics were measured. Intrinsic fluorescence of the compounds only (without DNA) was negligible. Emission spectra for the compounds bound to dsDNA were obtained by incubating 0.8 μM compound with 500 ng/ml calf thymus DNA in TE buffer (10 mM Tris-HCl, pH 7.5, 1 mM EDTA) in a final volume of 3 ml. Measurements were made using PerkinElmer LS 55 (F-11) Fluorescence spectrometer. Samples were excited at 488 nm and fluorescence emission was measured with emission slit widths of 2.5 nm. Absorption maxima were determined according to standard techniques.
Fluorescence enhancement measurements of the compounds were obtained by incubating 0.8 μM compound with 500 ng/ml calf thymus DNA with compounds at a final concentration of 0.8 μM in TE buffer. Compound 1 was used as an internal standard to control for variability (e.g., in excitation light intensity). The area-under-curve of fluorescence emission spectra from 500 nm to 715 nm was calculated, and compared to that of compound 1, which was defined as having 1000-fold fluorescence enhancement relative to fluorescence of the compound alone.

Compound	Absorbance Max [1] [nm]	Emission Max (calf thymus DNA) [nm]	Fluorescence Enhancement (calf thymus DNA) [fold]
CCN(CCN(C)C)C1=C/C(=C/c2sc3ccccc3[n+]2C)c2ccc(OC)cc2N1c1ccccc1.[I-] [Compound 55]	496	520	908
CCCN(CCC[N+](C)(C)CC)C1=CC(=Cc2sc3ccccc3[n+]2C)c2ccc(OC)cc2N1c1ccccc1.[I-].[I-] [Compound 43]	494	519	1033
CCCN(CCCN(C)C)C1=C/C(=C/c2sc3ccccc3[n+]2C)c2ccccc2N1c1ccccc1 [Compound 1, reference compound]	500	523	1000
CCCCN(CCC[N+](C)(C)Cc1ccccc1)C1=CC(=Cc2sc3ccccc3[n+]2C)c2ccc(OC)cc2N1c1ccccc1.[I-].[I-] [Compound 39]	490	517	1080
CCCN(CCC[N+](C)(C)Cc1cccc(OC)c1)C1=C/C(=C/c2sc3ccccc3[n+]2C)c2ccccc2N1c1ccccc1.[Br-].[Cl-] [Compound 7]	502	522	978
CCCN(CCC[N+](C)(C)CCC)C1=CC(=Cc2sc3ccccc3[n+]2C)c2ccc(OC)cc2N1c1ccccc1.[I-].[I-] [Compound 44]	494	518	1101
CCCN(CCC[N+](C)(C)Cc1cccc(OC)c1)C1=CC(=Cc2sc3ccccc3[n+]2C)c2ccc(OC)cc2N1c1ccccc1.[Br-].[I-] [Compound 47]	495	518	1038
CCCCN(CCC[N+](C)(C)Cc1cccc(OC)c1)C1=CC(=Cc2sc3ccccc3[n+]2C)c2ccc(OC)cc2N1c1ccccc1.[Br-].[I-] [Compound 40]	490	520	1050
CCCN(CCC[N+](C)(C)Cc1ccccc1)C1=C/C(=C/c2sc3ccccc3[n+]2C)c2ccc(OC)cc2N1c1ccccc1.[Br-].[I-] [Compound 46]	494	520	931
CCCCN(CCC[N+](C)(C)Cc1cccc(OC)c1)C1=C/C(=C/c2sc3ccccc3[n+]2C)c2ccccc2N1c1ccccc1.[Br-].[I-] [Compound 14]	497	526	907
CCN(CC[N+](C)(C)C)C1=C/C(=C/c2sc3ccccc3[n+]2C)c2ccc(OC)cc2N1c1ccccc1.[I-].[I-] [Compound 56]	499	523	894
C[n+]1c(/C=C2/C=C(CCC[N+](C)(C)C)N(c3ccccc3)c3ccccc32)sc2ccccc21 [Compound 65]	527	530	136
CCCCN(CCC[N+](C)(C)CC)C1=CC(=Cc2sc3ccccc3[n+]2C)c2ccc(OC)cc2N1c1ccccc1.[I-].[I-] [Compound 36]	489	521	1071
CN(C)CCCC1=C/C(=C/c2sc3ccccc3[n+]2C)c2ccccc2N1c1ccccc1 [Compound 64]	527	529	204

Now from value to molecule, other results behind:

Absorbance Max [1] [nm]	Emission Max (calf thymus DNA) [nm]	Compound	Fluorescence Enhancement (calf thymus DNA) [fold]
506	527	CCC[N+](C)(C)CCN(CC)C1=C/C(=C/c2sc3ccccc3[n+]2C)c2ccccc2N1c1ccccc1.[I-].[I-] [Compound 31]	642
496	524	CCN(CCC[N+](C)(C)CCO)C1=C/C(=C/c2sc3ccccc3[n+]2C)c2ccccc2N1c1ccccc1.[I-].[I-] [Compound 18]	882
498	520	CCN(CC[N+](C)(C)CCO)C1=C/C(=C\c2sc3ccccc3[n+]2C)c2ccc(OC)cc2N1c1ccccc1.[I-].[I-] [Compound 59]	863
495	525	CCCCN(CCCN(C)C)C1=C/C(=C/c2sc3ccccc3[n+]2C)c2ccccc2N1c1ccccc1.[I-] [Compound 8]	946
497	524	CCN(CCC[N+](C)(C)Cc1ccccc1)C1=C/C(=C/c2sc3ccccc3[n+]2C)c2ccccc2N1c1ccccc1.[Br-].[I-] [Compound 19]	884
497	522	CCC[N+](C)(C)CCCN(C)C1=C/C(=C/c2sc3ccccc3[n+]2C)c2ccccc2N1c1ccccc1.[I-].[I-] [Compound 24]	630
501	523	CCCN(CCC[N+](C)(C)CCO)C1=C/C(=C/c2sc3ccccc3[n+]2C)c2ccccc2N1c1ccccc1.[I-].[I-] [Compound 5]	954
507	527	CCN(CC[N+](C)(C)Cc1ccccc1)C1=C/C(=C/c2sc3ccccc3[n+]2C)c2ccccc2N1c1ccccc1.[Br-].[I-] [Compound 32]	672
496	523	CCN(CCC[N+](C)(C)CC)C1=C/C(=C/c2sc3ccccc3[n+]2C)c2ccccc2N1c1ccccc1.[I-].[I-] [Compound 17]	865
496	521	CCN(CC[N+](C)(C)CC)C1=C/C(=C/c2sc3ccccc3[n+]2C)c2ccc(OC)cc2N1c1ccccc1.[I-].[I-] [Compound 57]	877
490	520	CCC[N+](C)(C)CCCN(CC)C1=CC(=Cc2sc3ccccc3[n+]2C)c2ccc(OC)cc2N1c1ccccc1.[I-].[I-] [Compound 51]	1016
496	525	CCCCN(CCC[N+](C)(C)C)C1=C/C(=C/c2sc3ccccc3[n+]2C)c2ccccc2N1c1ccccc1.[I-].[I-] [Compound 9]	908
501	524	CCCN(CCC[N+](C)(C)CC)C1=C/C(=C/c2sc3ccccc3[n+]2C)c2ccccc2N1c1ccccc1.[Cl-].[I-] [Compound 3]	997
506	526	CCN(CC[N+](C)(C)CC)C1=C/C(=C/c2sc3ccccc3[n+]2C)c2ccccc2N1c1ccccc1.[Cl-].[I-] [Compound 30]	638
507	526	CCN(CC[N+](C)(C)Cc1cccc(OC)c1)C1=C/C(=C/c2sc3ccccc3[n+]2C)c2ccccc2N1c1ccccc1.[Br-].[I-] [Compound 33]	652
506	528	CCN(CC[N+](C)(C)C)C1=C/C(=C/c2sc3ccccc3[n+]2C)c2ccccc2N1c1ccccc1.[Cl-].[I-] [Compound 29]	648
